# Measurements as given in US8399452B2, “Dibenzo[b,f][1,4]oxazepin-11-yl-N-hydroxybenzamides as HDAC inhibitors” (Methylgene Inc., priority 2006, dated 2013).
# Read-outs that look alike come from different tables or passages of the source.
# Experiments:
# [1] = target: histone deacetylase (HDAC Enzyme); assay: Inhibition of Histone Deacetylase Enzymatic Activity (Boc-Lys(Ac)-AMC, Fluor-de-Lys developer); format: biochemical
# Method: The following protocol is used to assay the compounds of the invention.
# The mixture is pre-incubated for 5 minutes at room temperature. The reaction is started by bringing the temperature to 37° C. and adding 16 μl substrate. Total reaction volume is 50 μl.
# In the Tables 8, 9 and 10, A≦[…]<B≦0.1 μM; 0.1 μM<C≦1 μM; and 1 μM<D≦10 μM.
# [2] = tested on: HDAC in primary mouse cortical neurons; assay: Whole-Cell Histone Deacetylase (HDAC) Inhibition Assay in Primary Mouse Cortical Cultures; format: cell-based
# Method: Primary neocortical cultures are established through the dissection of the neocortex from E17 embryos harvested from time-pregnant Balb/C mice. Following dissection, the neocortical tissue specimens undergo digestion by incubation at 37° C. for 10 minutes in dissection medium (1×HBSS/10 mM HEPES/1 mM Sodium Pyruvate) supplemented with (0.25%) Trypsin and (0.1%) DNase I. Digested tissue is washed and resuspended in plating medium (NeuroBasal/10% HS/0.5 mM L-Glutamine (Invitrogen Corporation)) for trituration. Additional plating medium is added, and the contents are passed over a 70 um cell-strainer. The cell-density is quantified using a hemacytometer, and dilutions are made to allow for the plating of 50000 cells/well/100 uL in 96-well PDL-coated plates. Plates are incubated for 4-5 hours in 37° C./5% CO2-incubator, after which time the entire volume is exchanged to feeding medium (NeuroBasal/2% B-27 Serum-free supplement/0.5 mM L-Glutamine/1% Penicillin-Streptomycin (Invitrogen Corporation)). The cultures undergo two 50% fresh feeding medium exchanges at 3 days in vitro (DIV3), and again at DIV7.
# Compounds for testing are resuspended in dimethyl sulphoxide (DMSO), and further diluted in DMSO for a ten-point dose-response curve, with appropriate controls. Each master plate is assayed in triplicate. […] Three DIV9 culture plates are leveled to 50 uL/well, onto which each has overlaid 50 uL/well of the diluted daughter plate. The plates are returned to the 37° C./5% CO2-incubator for 16-18 hours.
# The next step of the assay involves the exposure of a HDAC colorimetric substrate, comprising an acetylated lysine side chain, to the compound-treated neuronal cultures. Based on the ability of the compound to inhibit HDAC activity in the neuronal cultures, the substrate is deacetylated by HDACs, and subsequently sensitized. […] Compound-incubated culture plates are again leveled to 50 uL/well and 2 uL/well of 7.5 mM BOC-Lys (Ac)-AMC substrate is added and thoroughly mixed. Plates are returned to the 37° C./5% CO2-incubator for 1 hour.
# The final addition to the culture plates entails treatment with a Fluor de LyS™-based developer (BIOMOL Research Laboratories, Inc.) to produce a fluorophore, which is analyzed using a spectrophotometer. The developer solution (1× Fluor de Lys™/1% NP-40/1 uM TSA in HDAC Buffer Solution) is prepared, and 50 uL/well is added to each of the wells of the culture plates. […] The plates are returned to the 37° C./5% CO2-incubator for 10-15 minutes, after which time, they are removed and set in the dark at room temperature for 5-10 minutes.
# [3] = tested on: Drosophila Huntington's Disease model flies; assay: In Vivo Drosophila Fly Assay for Treatment of Huntington's Disease (automated climbing behavior, early/late speed effect size); parameters: species or system Drosophila melanogaster; details: for Speed 1 to 7 (effect size, early speed): average speed days 1-7 vs DMSO-carrier control; for Speed 8 to 10 (effect size, late speed): average speed days 8-10 vs DMSO-carrier control
# Text: The Drosophila Huntington's Disease assay used to screen compounds of the present invention followed that of WO 2007/002497, which is hereby incorporated by reference in its entirety.
# Briefly, parental (model and driver) lines are maintained in sufficient quantities to provide virgins and males for assay crosses as well as perpetuating the lines. Disease model flies are maintained with the disease genes “silent”, functionally linked to a UAS enhancer element. The “driver” lines contain a GAL4 element under the control of a tissue-specific promoter. These are crossed together to generate the assay flies which have tissue-specific (i.e. CNS) expression of the disease gene(s).
# Weekly assay crosses are set up with sufficient virgins and males to generate enough assay embryos for sorting. Approximately 50,000 males and 75,000 virgins are crossed in population cages. Embryos are collected for an eight hour window two days later. The embryos are then sorted onto 16 mm assay vials containing regular fly media and allowed to develop. Flies containing both the GAL4 driver element and the disease gene(s) are detected by the presence of GFP, a fluorescing protein. Approximately 10 assay flies eclose per vial, the optimal number for the behavioral assay. Once the flies eclose, they are transferred onto assay vials containing liquid Drosophila food. Similarly, control crosses are set up with virgins of the driver and males from a non-disease UAS line. Throughout fly production and the assay days, all flies are maintained at constant temperature and humidity, with preset light cycle, optimized for the particular lines and crosses.
# Quality control (QC) for the parental lines is carried out weekly by collecting a sample of random male flies from each line. Single-fly PCR is carried out to ascertain the presence of the GAL4 or UAS element. If greater than 5% of the individuals lack the appropriate element, the assay cross is aborted. A second form of QC is also carried out to ensure that the GAL4 element is able to drive expression of a transgene. A sample of individual “driver” virgins is crossed to UAS-GFP males. Their progeny are visually checked for GFP expression in the appropriate tissues. Lack of GFP in greater than 4% of the crosses results in the assay being aborted.
# Test compounds are weighed out and dissolved in DMSO at stock concentrations 100× what is desired in the assay and arrayed into 96-well master plates, including wells for DMSO-only controls and the positive control(s). A single well is reserved for a colored dye used to ensure proper orientation of compounds during drug dispensing and fly transfer. Replicate daughter plates for each day of the assay are stamped out. The plates are bar coded and stored at −20 C until used for the assay.
# For a particular assay day, the plates are thawed and a robotic liquid handler is used to dilute the test compound into the liquid fly food and dispense the mixture into the assay vials. For Huntington Disease (HD) models, eight replicates per single treatment (one compound, one concentration) are dispensed. Fresh test compound treated media is made daily during an assay.
# On the day the assay flies eclose (emerge from […]; assay Day 0) they are transferred to the test compound treated vials. On assay Day 1, the flies are transferred onto clean test compound treated vials one hour before assay time. They are then placed in the assay machine to acclimate to the appropriate climate conditions.
# The assay machine is an environmentally-enclosed and controlled robot that can maintain user-set temperature and humidity. The machine can hold up to sixteen 96-vial racks in four quadrants, for a total of 1536 vials. There are four camera stations, which hold four vials each and a CCD camera for movie capture. […]
# [4] = Table 10, read-out: HDAC Inhibition (IC50 μM) HDAC Enzyme
# [5] = Table 10, whole-cell, read-out: HDAC Inhibition (IC50 μM) WC mouse cortical neurons
Compound,"IC50 [1, 4]","IC50 [2, 5]",other results
O=C(NO)c1ccc(OCCN2C(=O)c3ccccc3Oc3ccccc32)c(F)c1,0.05 to 0.1 µM,< 1 µM,
O=C(NO)c1ccc(OCC(=O)N2Cc3ccccc3Oc3ccccc32)cc1,0.1 to 1 µM,1 to 5 µM,
O=C(NO)c1cnc(N2C3CNC(C3)C2c2cc(C(F)(F)F)ccn2)nc1 (centres unmarked),,,"Speed 1 to 7 (effect size, early speed) ([3]; 30 uM): 0.468; Speed 8 to 10 (effect size, late speed) ([3]; 30 uM): 0.087; Speed 1 to 7 (effect size, early speed) ([3]; 100 uM): 0.82; Speed 8 to 10 (effect size, late speed) ([3]; 100 uM): 0.82; Speed 1 to 7 (effect size, early speed) ([3]; 300 uM): 0.3; Speed 8 to 10 (effect size, late speed) ([3]; 300 uM): 0.54"
O=C(NO)c1cccc(OCCN2C(=O)c3ccccc3Oc3ccccc32)c1,0.1 to 1 µM,> 15 µM,
"O=C(NO)c1ccc(C2=Nc3ccccc3Oc3ccsc32)cc1 [(Z)-4-(benzo[b]thieno[2,3-f][1,4]oxazepin-10-yl)-N-hydroxybenzamide]",,,"IC50 ([1]; read-out: HDAC Inhibtion (IC50 μM) HDAC Enzyme): < 0.05 µM; IC50 ([2]; whole cell, read-out: HDAC Inhibtion (IC50 μM) WC mouse cortical neurons): 1 to 5 µM"
"O=C(CCCCCCCN1C(=O)c2ccccc2Oc2ccccc21)NO [N-hydroxy-8-(11-oxodibenzo[b,f][1,4]oxazepin-10(11H)-yl)octanamide]",0.05 to 0.1 µM,,
"O=C(NO)c1cc2c(cn1)[nH]c1ccccc12 [N-hydroxy-9H-pyrido[3,4-b]indole-3-carboxamide]",1 to 10 µM,,
"O=C(NO)c1cnc(N2CCCN(C(=O)OCc3ccccc3)CC2)nc1 [benzyl 4-(5-(hydroxycarbamoyl)pyrimidin-2-yl)-1,4-diazepane-1-carboxylate]",0.05 to 0.1 µM,,
"(Z)-N-(5H-dibenzo[b,f]azepin-5-yl)methyl)benzyl)-N-hydroxyformamide",0.1 to 1 µM,,

# Now from value to compound, other results behind:
"IC50 [1, 4]","IC50 [2, 5]",Compound,other results
< 0.05 µM,< 1 µM,O=C(NO)c1ccc(OCCN2C(=O)c3cc(F)ccc3Oc3ccccc32)cc1,
< 0.05 µM,1 to 5 µM,O=C(NO)c1ccc(OCCN2C(=O)c3ccccc3Oc3cc(Cl)ccc32)cc1,
< 0.05 µM,< 1 µM,O=C(NO)c1ccc(OCCN2C(=O)c3ccccc3Oc3ccccc32)cc1,
< 0.05 µM,< 1 µM,CN1CCC2=C(C1)Oc1ccccc1N(CCOc1ccc(C(=O)NO)cc1)C2=O,
< 0.05 µM,< 1 µM,O=C(NO)c1ccc(OCCN2C(=O)CCOc3ccccc32)cc1,
< 0.05 µM,1 to 5 µM,O=C(NO)c1ccc(OCCN2CCOc3ccccc3C2=O)cc1,
< 0.05 µM,< 1 µM,O=C(NO)c1ccc(OCCN2C(=O)c3cccnc3Oc3ccccc32)cc1,
< 0.05 µM,< 1 µM,O=C(NO)c1ccc(OCCN2C(=O)c3ccncc3Oc3ccccc32)cc1,
< 0.05 µM,,"O=C(CCCCCCN1C(=O)c2ccccc2Oc2ccccc21)NO [N-hydroxy-7-(11-oxodibenzo[b,f][1,4]oxazepin-10(11H)-yl)heptanamide]",
< 0.05 µM,,"O=C(CCCCCCN1C(=O)c2ccccc2Sc2ccccc21)NO [N-hydroxy-7-(11-oxodibenzo[b,f][1,4]thiazepin-10(11H)-yl)heptanamide]",
< 0.05 µM,,O=C(CCCCCCOc1nc2ccccc2c2ccccc12)NO [N-hydroxy-7-(phenanthridin-6-yloxy)heptanamide],
< 0.05 µM,,"O=CN(O)CCCCCCN1C(=O)c2ccccc2Oc2ccccc21 [N-hydroxy-N-(6-(11-oxodibenzo[b,f][1,4]oxazepin-10(11H)-yl)hexyl)formamide]",
